pIC50: −log10 of the molar value.
Tests used:
[1] = biological target: T1, c-Kit kinase (SEQ ID NO:9) (Homo sapiens, UniProt P10721); experiment: c-Kit kinase assay (pyruvate kinase/lactate dehydrogenase coupled); settings: <2 min preincubation at 22° C., ATP 200 μM; read-out: c-Kit Enzyme Assay, biochemical IC50
T1 construct: purchased ProQinase
Protocol: C-Kit Kinase (SEQ ID NO:9) Assay
Activity of c-Kit kinase (SEQ ID NO:9) was determined by following the production of ADP from the kinase reaction through coupling with the pyruvate kinase/lactate dehydrogenase system (e.g., Schindler, et al. Science (2000) 289, 1938-1942). In this assay, the oxidation of NADH (thus the decrease at A340 nm) was continuously monitored spectrophometrically. The reaction mixture ([…]) contained c-Kit (cKIT residues T544-V976, from ProQinase, 5.4 nM), polyE4Y (1 mg/ml), MgCl2 (10 mM), pyruvate kinase (4 units), lactate dehydrogenase (0.7 units), phosphoenol pyruvate (1 mM), and NADH (0.28 mM) in 90 mM Tris buffer containing 0.2% octyl-glucoside and 1% DMSO, pH 7.5. Test compounds were incubated with […] (SEQ ID NO:9) and other reaction reagents at 22° C. for <2 min before ATP (200 μM) was added to start the reaction. The absorption at 340 nm was monitored continuously for 0.5 hours at 30° C. on Polarstar Optima plate reader (BMG). The reaction rate was calculated using the 0 to 0.5 h time frame. Percent inhibition was obtained by comparison of reaction rate with that of a control (i.e. with no test compound). IC50 values were calculated from a series of percent inhibition values determined at a range of inhibitor concentrations using software routines as implemented in the GraphPad Prism software package.

[2] = biological target: T2, C-Met kinase (SEQ ID NO:10) (Homo sapiens, UniProt P08581); experiment: C-Met kinase assay (pyruvate kinase/lactate dehydrogenase coupled); settings: 0.5 h preincubation at 22° C., ATP 100 μM; read-out: c-Met Enzyme Assay, biochemical IC50
T2 construct: purchased Invitrogen PV3143
T2 sequence (P08581 with tags, fused parts or gaps): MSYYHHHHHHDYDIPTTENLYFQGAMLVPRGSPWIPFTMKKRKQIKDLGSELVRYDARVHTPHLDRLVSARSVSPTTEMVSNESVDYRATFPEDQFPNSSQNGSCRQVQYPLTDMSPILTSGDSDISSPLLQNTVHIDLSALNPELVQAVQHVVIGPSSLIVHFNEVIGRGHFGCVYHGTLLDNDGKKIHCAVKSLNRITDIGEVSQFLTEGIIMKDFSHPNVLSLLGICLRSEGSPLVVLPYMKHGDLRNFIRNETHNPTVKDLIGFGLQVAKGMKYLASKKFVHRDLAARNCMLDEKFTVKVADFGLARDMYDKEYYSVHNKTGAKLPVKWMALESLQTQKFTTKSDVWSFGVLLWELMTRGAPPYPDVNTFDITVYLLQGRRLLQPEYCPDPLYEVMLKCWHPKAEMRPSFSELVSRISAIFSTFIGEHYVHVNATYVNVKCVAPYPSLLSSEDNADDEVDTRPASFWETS
Protocol: C-Met Kinase (SEQ ID NO:10) Assay
Activity of C-Met kinase (SEQ ID NO:10) was determined by following the production of ADP from the kinase reaction through coupling with the pyruvate kinase/lactate dehydrogenase system (e.g., Schindler, et al. Science (2000) 289, 1938-1942). In this assay, the oxidation of NADH (thus the decrease at A340 nm) was continuously monitored spectrophometrically. The reaction mixture (100 μl) contained C-Met (c-Met residues; 956-1390, from Invitrogen, catalogue #PV3143, 6 nM), polyE4Y (1 mg/ml), MgCl2 (10 mM), pyruvate kinase (4 units), lactate dehydrogenase (0.7 units), phosphoenol pyruvate (1 mM), and NADH (0.28 mM) in 90 mM Tris buffer containing 0.25 mM DTT, 0.2% octyl-glucoside and 1% DMSO, pH 7.5. Test compounds were incubated with C-Met (SEQ ID NO:10) and other reaction reagents at 22° C. for 0.5 h before ATP (100 μM) was added to start the reaction. The absorption at 340 n=was monitored continuously for 2 hours at 30° C. on Polarstar Optima plate reader (BMG). The reaction rate was calculated using the 1.0 to 2.0 h time frame. Percent inhibition was obtained by comparison of reaction rate with that of a control (i.e. with no test compound). IC50 values were calculated from a series of percent inhibition values determined at a range of inhibitor concentrations using software routines as implemented in the GraphPad Prism software package.

[3] = biological target: B-Raf(V600E) kinase (SEQ ID NO:11) (Homo sapiens, UniProt P15056, V600E); experiment: B-Raf(V600E) kinase assay (pyruvate kinase/lactate dehydrogenase coupled, MEK1 substrate); settings: 1 h preincubation at 30° C., ATP 0.2 mM; read-out: B-Raf V600E Enzyme Assay, biochemical IC50
B-Raf(V600E) kinase (SEQ ID NO:11), sequence (P15056 with tags, fused parts or gaps V600E): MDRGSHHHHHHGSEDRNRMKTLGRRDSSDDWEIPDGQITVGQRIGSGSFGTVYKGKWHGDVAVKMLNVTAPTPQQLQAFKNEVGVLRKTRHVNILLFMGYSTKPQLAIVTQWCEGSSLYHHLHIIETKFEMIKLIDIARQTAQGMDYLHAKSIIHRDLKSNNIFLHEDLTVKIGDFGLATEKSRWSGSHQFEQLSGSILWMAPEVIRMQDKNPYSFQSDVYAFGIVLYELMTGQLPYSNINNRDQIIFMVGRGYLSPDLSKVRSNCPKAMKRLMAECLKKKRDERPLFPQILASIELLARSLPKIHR
Protocol: B-Raf(V600E) Kinase Assay
The activity of B-Raf(V600E) kinase (SEQ ID NO:11) was determined by following the formation of ADP from the reaction through coupling with the pyruvate kinase/lactate dehydrogenase system (e.g., Schindler, et al. Science (2000) 289, 1938-1942). In this assay, the oxidation of NADH (thus the decrease at A340nm) was continuously monitored spectrophotometrically. The reaction mixture (100 μl) contained B-Raf(V600E) kinase (0.34 nM nominal concentration, SEQ ID NO:11), unphosphorylated, full-length MEK1 (42 nM, SEQ ID NO:12), MgCl2 (13 mM), pyruvate kinase (3.5 units), lactate dehydrogenase (5.5 units), phosphoenolpyruvate (1 mM), and NADH (0.28 mM), in 60 mM Tris buffer, containing 0.13% octyl-glucoside and 3.5% DMSO concentration at pH 7.5. The test compounds were incubated with the reaction mixture at 30° C. for 1 h. The reaction was initiated by adding ATP (0.2 mM, final concentration). The absorption at 340 nm was continuously monitored for 3 h at 30° C. on a Polarstar Optima plate reader (BMG). The reaction rate was calculated using the 0.5 h to 1.5 h time frame. Percent inhibition was obtained by comparison of reaction rate with that of a control (i.e. with no test compound). IC50 values were calculated from a series of percent inhibition values determined at a range of inhibitor concentrations using software routines as implemented in the GraphPad Prism software package.

[4] = biological target: T3, BaF3 cells transfected with wild type p210 BCR-Abl (Homo sapiens, UniProt P00519); experiment: Ba/F3 p210 whole cell proliferation assay (Cell Titer Blue, 72 hours); assay type: cell-based; settings: 72 hours incubation; read-out: Ba/F3 p210 whole cell proliferation assay, antiproliferation IC50
T3 construct: fused on or other part: P11274 (Breakpoint cluster region protein)
T3 sequence (P00519 whole entry, change not shown, the tested form may be a part): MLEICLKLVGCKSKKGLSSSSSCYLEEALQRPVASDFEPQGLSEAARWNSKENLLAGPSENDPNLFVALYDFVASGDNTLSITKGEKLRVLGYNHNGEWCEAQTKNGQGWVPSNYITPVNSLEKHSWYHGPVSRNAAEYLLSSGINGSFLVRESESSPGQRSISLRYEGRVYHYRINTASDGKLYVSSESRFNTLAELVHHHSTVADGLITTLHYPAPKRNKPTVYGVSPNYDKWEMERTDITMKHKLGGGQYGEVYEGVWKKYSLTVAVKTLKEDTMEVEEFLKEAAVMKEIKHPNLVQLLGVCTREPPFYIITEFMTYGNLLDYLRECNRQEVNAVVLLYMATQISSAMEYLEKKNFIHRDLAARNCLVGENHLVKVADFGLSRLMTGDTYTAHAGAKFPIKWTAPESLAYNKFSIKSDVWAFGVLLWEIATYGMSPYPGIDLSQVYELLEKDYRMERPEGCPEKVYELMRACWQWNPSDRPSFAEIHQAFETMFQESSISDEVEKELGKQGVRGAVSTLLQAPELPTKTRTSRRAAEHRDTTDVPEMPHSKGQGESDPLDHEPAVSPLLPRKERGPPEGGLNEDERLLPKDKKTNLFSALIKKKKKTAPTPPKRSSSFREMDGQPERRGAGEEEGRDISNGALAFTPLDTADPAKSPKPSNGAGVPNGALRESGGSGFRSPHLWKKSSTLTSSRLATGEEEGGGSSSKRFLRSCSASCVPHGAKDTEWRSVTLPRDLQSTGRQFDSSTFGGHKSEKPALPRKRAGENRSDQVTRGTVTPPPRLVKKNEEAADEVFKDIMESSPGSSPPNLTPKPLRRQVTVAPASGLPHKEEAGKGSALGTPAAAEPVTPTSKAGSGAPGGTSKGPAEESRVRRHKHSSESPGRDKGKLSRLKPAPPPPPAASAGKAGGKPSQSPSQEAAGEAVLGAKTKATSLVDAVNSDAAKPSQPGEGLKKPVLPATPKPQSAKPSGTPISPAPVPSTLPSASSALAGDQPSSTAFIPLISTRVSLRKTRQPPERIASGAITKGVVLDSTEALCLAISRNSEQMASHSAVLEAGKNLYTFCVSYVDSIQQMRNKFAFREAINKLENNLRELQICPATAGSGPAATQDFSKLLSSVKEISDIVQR
Protocol: BaF3 cells (parental or transfected with the following: wild type p210 BCR-Abl and T315I p210 BCR-Abl was obtained from Professor Richard Van Etten (New England Medical Center, Boston, Mass.). Briefly, cells were grown in RPMI 1640 supplemented with 10% characterized fetal bovine serum (HyClone, Logan, Utah) at 37 degrees Celsius, 5% CO2, 95% humidity. Cells were allowed to expand until reaching 80% saturation at which point they were subcultured or harvested for assay use.
A serial dilution of test compound was dispensed into a 96 well black clear bottom plate (Corning, Corning, N.Y.). For each cell line, three thousand cells were added per well in complete growth medium. Plates were incubated for 72 hours at 37 degrees Celsius, 5% CO2, 95% humidity. At the end of the incubation period Cell Titer Blue (Promega, Madison, Wis.) was added to each well and an additional 4.5 hour incubation at 37 degrees Celsius, 5% CO2, 95% humidity was performed. Plates were then read on a BMG Fluostar Optima (BMG, Durham, N.C.) using an excitation of 544 nm and an emission of 612 nm. Data was analyzed using Prism software (Graphpad, San Diego, Calif.) to calculate IC50's.

T1 sequence (P10721 with tags, fused parts or gaps): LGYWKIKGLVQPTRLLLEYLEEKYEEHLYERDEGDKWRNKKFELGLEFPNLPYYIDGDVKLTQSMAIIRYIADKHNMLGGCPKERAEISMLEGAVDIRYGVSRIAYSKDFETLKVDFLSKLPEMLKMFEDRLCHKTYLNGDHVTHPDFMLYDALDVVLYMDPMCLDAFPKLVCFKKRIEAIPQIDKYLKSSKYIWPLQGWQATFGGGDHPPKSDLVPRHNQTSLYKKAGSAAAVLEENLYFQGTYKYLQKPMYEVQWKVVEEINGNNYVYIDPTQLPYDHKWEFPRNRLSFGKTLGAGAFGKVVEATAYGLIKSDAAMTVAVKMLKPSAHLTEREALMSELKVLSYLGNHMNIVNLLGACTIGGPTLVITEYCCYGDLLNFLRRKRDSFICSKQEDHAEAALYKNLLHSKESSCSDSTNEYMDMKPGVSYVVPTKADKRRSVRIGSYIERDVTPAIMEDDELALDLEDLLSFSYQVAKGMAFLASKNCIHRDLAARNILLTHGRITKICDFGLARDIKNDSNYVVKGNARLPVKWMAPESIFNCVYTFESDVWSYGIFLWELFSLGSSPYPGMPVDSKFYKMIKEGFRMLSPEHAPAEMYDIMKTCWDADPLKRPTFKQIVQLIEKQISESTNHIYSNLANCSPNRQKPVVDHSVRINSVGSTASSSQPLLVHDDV

| Structure (SMILES) | pIC50 [1] | pIC50 [2] | pIC50 [3] | GI50 [4] [nM] |
| --- | --- | --- | --- | --- |
| Cc1c(Oc2ccnc(-c3cnn(C)c3)c2)ccc(NC(=O)Nc2cc(C(C)C)nn2-c2cccc(C#N)c2)c1F [Example 12, 1-(1-(3-cyanophenyl)-3-isopropyl-1H-pyrazol-5-yl)-3-(2-fluoro-3-methyl-4-(2-(1-methyl-1H-pyrazol-4-yl)pyridin-4-yloxy)phenyl)urea] | > 7.00 | > 7.00 | > 7.00 | < 100 |
| CC(C)c1cc(NC(=O)Nc2ccc(Oc3ccnc(-c4cnn(C)c4)c3)c(F)c2F)n(-c2cccc(C#N)c2)n1 [Example 13, 1-(1-(3-cyanophenyl)-3-isopropyl-1H-pyrazol-5-yl)-3-(2,3-difluoro-4-(2-(1-methyl-1H-pyrazol-4-yl)pyridin-4-yloxy)phenyl)urea] | > 7.00 | > 7.00 | > 7.00 | < 100 |
| CCc1cc(NC(=O)Nc2ccc(Oc3ccnc(-c4cnn(C(C)C)c4)c3)cc2F)n(-c2cccc(C#N)c2)n1 [Example 17, 1-(1-(3-cyanophenyl)-3-ethyl-1H-pyrazol-5-yl)-3-(2-fluoro-4-(2-(1-isopropyl-1H-pyrazol-4-yl)pyridin-4-yloxy)phenyl)urea] | > 7.00 | > 6.00 | > 5.00 | < 100 |
| CCc1cc(NC(=O)Nc2ccc(Oc3ccnc(-c4cnn(C)c4)c3)cc2F)n(-c2ccc(CO)cc2)n1 [Example 19, 1-(3-ethyl-1-(4-(hydroxymethyl)phenyl)-1H-pyrazol-5-yl)-3-(2-fluoro-4-(2-(1-methyl-1H-pyrazol-4-yl)pyridin-4-yloxy)phenyl)urea] | > 7.00 | > 6.00 | > 6.00 | < 100 |
| CC(C)n1cc(NC(=O)Nc2ccc(Oc3ccnc(-c4cnn(C)c4)c3)cc2F)c(-c2ccccc2)n1 [Example 21, 1-(2-fluoro-4-(2-(1-methyl-1H-pyrazol-4-yl)pyridin-4-yloxy)phenyl)-3-(1-isopropyl-3-phenyl-1H-pyrazol-4-yl)urea] | > 7.00 | > 6.00 | > 6.00 | < 100 |
